The values below come from PMC10598577 (JACS Au, 2023).

The target in experiment [1] is MopR M100K_V116D (Acinetobacter guillouiae, UniProt Q43965, M100K/V116D). Particulars: salt bridge mutant M100K_V116D, ligand phenol.
Experiment [2] has as its system MopR M100K_L119D. Particulars: salt bridge mutant M100K_L119D, ligand phenol.
Experiment [3] has as its system MopR second barrier residues (F99, F132) mutated to leucine. The following applies: F99, F132 mutated to nonaromatic leucine, ligand phenol.
In experiment [4] the target is MopR H106A. The following applies: cited from earlier work.
In experiment [5] the target is MopR W134A. The following applies: cited from earlier work.
Experiment [6] concerns the target T1, wild type MopR (Acinetobacter guillouiae, UniProt Q43965).
T1 sequence (Q43965 1-229): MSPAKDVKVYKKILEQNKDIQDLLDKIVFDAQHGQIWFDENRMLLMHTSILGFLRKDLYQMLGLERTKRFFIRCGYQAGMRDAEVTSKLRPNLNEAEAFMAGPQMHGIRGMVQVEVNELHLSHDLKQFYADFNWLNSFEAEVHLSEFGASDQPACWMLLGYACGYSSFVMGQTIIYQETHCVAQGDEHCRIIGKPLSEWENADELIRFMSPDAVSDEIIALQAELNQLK
The experiment in a line: biochemical.

Experiment [7] concerns the target MopR M100Q_V116N (Acinetobacter guillouiae, UniProt Q43965, M100Q/V116N). The experiment is described as follows: biochemical.
For experiment [8], the target named is MopR M100Q_L119N (Acinetobacter guillouiae, UniProt Q43965, L119N/M100Q). The experiment is described as follows: biochemical.
Experiment [9] has as its target MopR M100V_L119V (Acinetobacter guillouiae, UniProt Q43965, L119V/M100V). The experiment is described as follows: biochemical.
The target in experiment [10] is T1, wild type MopR. The following applies: wild type MopR sensor domain; previous ITC studies; cited from earlier work.

Molecules are shown by their SMILES. “Also recorded” adds a separate entry of the source.

The Kd is the concentration at which binding is half-saturated. On to `Oc1ccccc1` [phenol], for which the “binding (ITC)” value in experiment [1] and in experiment [2] was “no detectable binding” in each case. Besides, in experiment [3], the “binding affinity (ITC)” value is “significantly decrease the binding affinity”. Further, the dissociation constant Kd in [4] was 7.86 ± 0.01 µM; in experiment [5] it was 2.87 ± 0.01 µM; in [6], 0.46 ± 0.06 µM; in experiment [7], 4.35 ± 0.07 µM; in [8], 2.7 ± 0.5 µM; in experiment [9], 0.45 ± 0.06 µM.
Regarding `c1ccccc1` [benzene], the “ligand selection profile of MopR (binding, in words)” value in experiment [10] is “significantly decreased affinity; also recorded: little or negligible binding”.
